Test results taken from patent US20020137736A1, “Novel compounds” (priority 1999, published 2002).

CC(C)Oc1ccc(NC(=N)c2cccs2)cc1CN1CCCC1 [Example 21, N-[4-Isopropoxy-3-(1-pyrrolidinylmethyl)phenyl]-2-thiophenecarboximidamide]
melting point: 138 to 140 °C
